Source: publication PMC5826336 (Frontiers in Synaptic Neuroscience, 2018)
Like-named read-outs stand apart in the source and are kept apart here.

How the values were obtained:
Assay type in all cases: cell-based
human D2R long isoform [1] = target: T1, human D2R long isoform (Homo sapiens, UniProt P14416); assay: HitHunter cAMP assay, inhibition of forskolin-stimulated cAMP, agonist mode
T1 construct: gene DRD2; full-length long isoform stably expressed in CHO-K1 cells from DiscoverX, HitHunter cAMP assay
From the text: HitHunter cAMP assay, inhibition of forskolin-stimulated cAMP, agonist mode on human D2R long isoform

human D2R long isoform [2] = target: T1, human D2R long isoform; assay: antagonism of D2R cAMP and beta-arrestin signaling (data not shown); conditions: CHO-K1
[3] = target: T2, D2R long isoform (PathHunter) (Homo sapiens, UniProt P14416); assay: PathHunter beta-arrestin recruitment, agonist mode
T2 construct: gene DRD2; long isoform in CHO-K1 PathHunter cells (DiscoverX), beta-galactosidase enzyme-fragment complementation with beta-arrestin; reporter tags not detailed
From the text: PathHunter beta-arrestin recruitment, agonist mode on D2R long isoform (PathHunter)

[4] = read-out: cAMP inhibition assay / EC50 (μM ± S.E.M.)
[5] = read-out: cAMP inhibition assay / EC50 (μM ± SEM)

T2 sequence (P14416 whole entry, the tested form may be a part, canonical isoform): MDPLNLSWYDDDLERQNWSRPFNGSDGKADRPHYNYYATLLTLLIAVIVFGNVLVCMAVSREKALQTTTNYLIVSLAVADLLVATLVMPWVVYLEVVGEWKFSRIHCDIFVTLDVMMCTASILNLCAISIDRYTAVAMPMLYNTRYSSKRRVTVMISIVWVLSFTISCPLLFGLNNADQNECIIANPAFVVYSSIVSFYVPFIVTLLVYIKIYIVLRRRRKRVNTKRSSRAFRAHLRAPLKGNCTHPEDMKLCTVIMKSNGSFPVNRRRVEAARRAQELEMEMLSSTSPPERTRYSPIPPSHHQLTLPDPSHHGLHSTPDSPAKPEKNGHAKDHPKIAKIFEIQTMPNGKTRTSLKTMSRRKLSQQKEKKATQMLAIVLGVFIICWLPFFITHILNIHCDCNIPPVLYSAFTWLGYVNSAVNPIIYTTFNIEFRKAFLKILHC
T1 sequence (P14416 whole entry, canonical isoform): as the sequence (P14416 whole entry, the tested form may be a part, canonical isoform) above

Row | EC50 (human D2R long isoform [1]; [4]) [µM] | EC50 [3] [nM] | EC50 (human D2R long isoform [1]; [5]) [µM] | SMILES | antagonism of D2R cAMP and beta-arrestin signaling (data not shown) (human D2R long isoform [2])
1 | 0.8 ± 0.1 | 2600 ± 1100 | – | c1cnc(N2CCN(Cc3ccc4ccccc4c3)CC2)nc1 [compound 45] | –
2 | 2.8 ± 1.2 | – | – | Oc1c(CN2CCN(c3ccccc3)CC2)cc(Cl)c2cccnc12 [compound 23] | –
3 | 27.3 ± 18.2 | – | – | c1ccc2c(CN3CCN(c4cnccn4)CC3)cccc2c1 [compound 38] | –
4 | 0.6 ± 0.5 | 1000 ± 200 | – | c1cnc(N2CCN(Cc3cc4ccccc4[nH]3)CC2)nc1 [compound 44] | –
5 | 13.3 ± 8.6 | 7700 ± 300 | – | c1cncc(N2CCN(Cc3cccc4ccccc34)CC2)c1 [compound 28] | –
6 | 0.7 ± 0.2 | 500 ± 300 | – | Oc1c(CN2CCN(c3ncccn3)CC2)cc(Cl)c2cccnc12 [compound 19] | –
7 | 8.5 ± 4 | 14500 ± 1500 | – | c1cnc(N2CCN(Cc3cccc4ccccc34)CC2)nc1 [compound 46] | –
8 | – | > 39000 | – | c1cncc(N2CCN(Cc3ccc4cc[nH]c4c3)CC2)c1 [compound 25] | –
9 | – | 24800 ± 15500 | – | c1ccc2cc(CN3CCN(c4cnccn4)CC3)ccc2c1 [compound 37] | –
10 | 0.04 ± 0.01 | 100 ± 10 | – | c1cnc(N2CCN(Cc3ccc4cc[nH]c4c3)CC2)nc1 [compound 43] | –

More lines, now with the values behind:

Row | SMILES | EC50 (human D2R long isoform [1]; [4]) [µM] | EC50 [3] [nM] | EC50 (human D2R long isoform [1]; [5]) [µM] | antagonism of D2R cAMP and beta-arrestin signaling (data not shown) (human D2R long isoform [2])
11 | Oc1c(CN2CCN(c3cnccn3)CC2)cc(Cl)c2cccnc12 [compound 18] | 3.5 ± 3.4 | – | – | –
12 | c1cc2ccc(CN3CCN(C4CCCCC4)CC3)cc2[nH]1 [compound 50] | – | – | – | compounds with cyclohexane substituents retained binding affinity for the D2R
13 | Oc1c(CN2CCN(c3ccccn3)CC2)cc(Br)c2cccnc12 [compound 3] | – | – | 7.9 ± 2.1 | –
14 | c1ccc(N2CCN(Cc3cccc4ccccc34)CC2)nc1 [compound 12] | – | – | 0.7 ± 0.7 | –
15 | Oc1c(CN2CCN(c3ccccn3)CC2)cc(Cl)c2cccnc12 [compound 1, MLS1547] | – | – | 2.2 ± 0.6 | –
16 | Oc1c(CN2CCN(C3CCCCC3)CC2)cc(Cl)c2cccnc12 [compound 24] | – | – | – | compounds with cyclohexane substituents retained binding affinity for the D2R
17 | Clc1c(CN2CCN(c3ccccn3)CC2)ccc2cccnc12 [compound 7] | – | 7300 ± 1800 | 6.6 ± 5.5 | –
18 | Oc1c(CN2CCN(c3ccccn3)CC2)ccc2cccnc12 [compound 2] | – | 900 ± 300 | 0.3 ± 0.09 | –
19 | COc1c(CN2CCN(c3ccccn3)CC2)cc(Cl)c2cccnc12 [compound 4] | – | – | 13.4 ± 11.7 | –
